Test results: ChEMBL document CHEMBL3862018, “Structure-activity of antifungal compounds inspired by aminobisabolenes from the sponge Halichondria sp” (2016)
In brackets after ≈: the same amount, converted by molar mass.

Legend:
[1] = Antifungal activity against Trichophyton rubrum MRL666 after 72 hrs by CLSI M38-A method; type: functional
[2] = Antifungal activity against Candida krusei after 24 hrs by microbroth dilution method; type: functional; settings: Pichia kudriavzevii
[3] = tested on: Candida albicans; assay: Antifungal activity against Candida albicans ATCC 14503 after 24 hrs by microbroth dilution method; type: functional; settings: ATCC 14503, 24 h
[4] = Antifungal activity against Candida glabrata after 24 hrs by microbroth dilution method; type: functional; settings: Nakaseomyces glabratus
[5] = tested on: Cryptococcus gattii species complex; assay: Antifungal activity against Cryptococcus gattii after 24 hrs by microbroth dilution method; type: functional, Cryptococcus bacillisporus

Structure (SMILES)	MIC90 [1] [µM]	MIC90 [2] [µM]	MIC90 [3] [µM]	MIC90 [4] [µM]	MIC90 [5] [µM]
CC(C)=CCC[C@](C)(N)[C@H]1CC=C(C)CC1	17 (≈ 3.76 µg/mL)	36 (≈ 7.97 µg/mL)	72 (≈ 15.9 µg/mL)	38 (≈ 8.41 µg/mL)	53 (≈ 11.7 µg/mL)
C[C@@H]1[C@H](O)[C@@H](C)/C=C/C=C/C=C/C=C/C=C/C=C/C=C/[C@H](O[C@@H]2O[C@H](C)[C@@H](O)[C@H](N)[C@@H]2O)C[C@@H]2O[C@](O)(C[C@@H](O)C[C@@H](O)[C@H](O)CC[C@@H](O)C[C@@H](O)CC(=O)O[C@H]1C)C[C@H](O)[C@H]2C(=O)O [AMPHOTERICIN B]		0.5 (≈ 0.462 µg/mL)	0.3 (≈ 0.277 µg/mL)	0.2 (≈ 0.185 µg/mL)	0.1 (≈ 0.0924 µg/mL)
CC(C)=CCC[C@](C)(NCc1cccc2ccccc12)[C@H]1CC=C(C)CC1	70 (≈ 25.3 µg/mL)		> 250		> 250
CC(C)CCC[C@](C)(N)C1CCC(C)CC1 (some centres not stated)		14 (≈ 3.16 µg/mL)	50 (≈ 11.3 µg/mL)	18 (≈ 4.06 µg/mL)	18 (≈ 4.06 µg/mL)
CN(C/C=C/C#CC(C)(C)C)Cc1cccc2ccccc12 [TERBINAFINE]		> 250	> 250	> 250	5.3 (≈ 1.54 µg/mL)
CC(C)CCC[C@@](C)(C1CCC(C)CC1)N(C)C (some centres not stated)		58 (≈ 14.7 µg/mL)	142 (≈ 36 µg/mL)	139 (≈ 35.2 µg/mL)	31 (≈ 7.86 µg/mL)
CC(C)=CCC[C@@](C)([C@H]1CC=C(C)CC1)N(C)Cc1cccc2ccccc12	> 250		> 250		> 250
